In series [1] the target is T1, Matrix metalloproteinase-9 (Homo sapiens, UniProt P14780). Kind of series: Inhibition MMP-9 (unknown origin) using Mca-Lys-Pro-Leu-Gly-Leu-Dpa-Ala-Arg-NH2 as substrate preincubated for 5 mins followed by substrate addition measured for 30 mins by fluorometric assay.
Series [2] concerns the target 72 kDa type IV collagenase (Homo sapiens, UniProt P08253). The series can be described thus: Inhibition MMP-2 (unknown origin) using Mca-Lys-Pro-Leu-Gly-Leu-Dpa-Ala-Arg-NH2 as substrate preincubated for 5 mins followed by substrate addition measured for 30 mins by fluorometric assay.
Series [3] can be described thus: Cytostatic activity in human A375P cells at 2.5 to 50 uM after 24 hrs by trypan blue based inverted-phase microscopic analysis. It counts as ADME, cell-based.
In a further series the test system is EPC. The series can be described thus: Antiinvasive activity in human endothelial progenitor cells at 20 uM after 24 hrs by matrigel assay. It counts as functional.
Series [4] can be described thus: Cytostatic activity in human A375P cells at 2.5 to 50 uM after 72 hrs by trypan blue based inverted-phase microscopic analysis. It is filed as ADME, cell-based.
The species named for another series is Mus musculus. The series can be described thus: Antiangiogenic activity in FVB mouse receiving 20 uM compound containing matrigel mixtures with heparin resuspended in EGM-2 medium assessed as reduction in capillary network formation after 5 days by microscopy based matrigel sponge assay. It is filed as functional, organism-based.
Series [5] in a line: Cytotoxic activity in human A375P cells at 2.5 to 50 uM after 24 hrs by trypan blue based inverted-phase microscopic analysis. It is filed as cell-based.
Series [6] has as its target T1, Matrix metalloproteinase-9. Kind of series: Inhibition of gelatinolytic activity of pro-MMP9 in human endothelial progenitor cells assessed as reduction in active form of protein at 20 uM by gelatin zymography.
The test system of a further series is A375P. Kind of series: Antiinvasive activity in human A375P cells assessed as reduction in tumor cell migration at 20 uM measured for 6 hrs by matrigel assay. It is filed as functional, cell-based.
The target of series [7] is T1, Matrix metalloproteinase-9. Kind of series: Inhibition of gelatinolytic activity of pro-MMP9 in human A375P cells assessed as reduction in active form of protein by gelatin zymography. It is filed as cell-based.

Activity calls are given as the source filed them. The rule behind the calls is not given here.

The record followed here is ChEMBL document CHEMBL3632521, “A study of ad-proline peptidomimetic inhibitor of melanoma and endothelial cell invasion through activity towards MMP-2 and MMP-9” (Medchemcomm, 2015).

As usually defined, the IC50 is the midpoint of a concentration-inhibition curve.

Chain of 72 kDa type IV collagenase (P08253 whole entry): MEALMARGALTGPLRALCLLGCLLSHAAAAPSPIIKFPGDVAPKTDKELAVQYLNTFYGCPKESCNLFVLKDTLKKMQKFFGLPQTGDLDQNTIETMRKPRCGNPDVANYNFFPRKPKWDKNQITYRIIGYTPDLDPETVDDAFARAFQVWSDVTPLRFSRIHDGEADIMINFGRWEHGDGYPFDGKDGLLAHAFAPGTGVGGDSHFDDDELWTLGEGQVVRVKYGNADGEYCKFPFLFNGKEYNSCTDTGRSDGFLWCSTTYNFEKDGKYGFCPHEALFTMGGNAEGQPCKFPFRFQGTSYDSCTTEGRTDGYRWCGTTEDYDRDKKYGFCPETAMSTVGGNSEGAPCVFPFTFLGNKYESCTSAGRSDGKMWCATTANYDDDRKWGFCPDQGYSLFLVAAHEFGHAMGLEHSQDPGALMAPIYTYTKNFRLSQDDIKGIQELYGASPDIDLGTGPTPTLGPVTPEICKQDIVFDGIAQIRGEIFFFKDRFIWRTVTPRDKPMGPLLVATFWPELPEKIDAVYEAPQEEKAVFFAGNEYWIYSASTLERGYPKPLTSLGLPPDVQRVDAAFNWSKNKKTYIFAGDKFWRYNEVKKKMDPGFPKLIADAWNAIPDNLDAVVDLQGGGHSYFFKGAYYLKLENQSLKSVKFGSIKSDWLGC
T1 sequence (P14780 whole entry): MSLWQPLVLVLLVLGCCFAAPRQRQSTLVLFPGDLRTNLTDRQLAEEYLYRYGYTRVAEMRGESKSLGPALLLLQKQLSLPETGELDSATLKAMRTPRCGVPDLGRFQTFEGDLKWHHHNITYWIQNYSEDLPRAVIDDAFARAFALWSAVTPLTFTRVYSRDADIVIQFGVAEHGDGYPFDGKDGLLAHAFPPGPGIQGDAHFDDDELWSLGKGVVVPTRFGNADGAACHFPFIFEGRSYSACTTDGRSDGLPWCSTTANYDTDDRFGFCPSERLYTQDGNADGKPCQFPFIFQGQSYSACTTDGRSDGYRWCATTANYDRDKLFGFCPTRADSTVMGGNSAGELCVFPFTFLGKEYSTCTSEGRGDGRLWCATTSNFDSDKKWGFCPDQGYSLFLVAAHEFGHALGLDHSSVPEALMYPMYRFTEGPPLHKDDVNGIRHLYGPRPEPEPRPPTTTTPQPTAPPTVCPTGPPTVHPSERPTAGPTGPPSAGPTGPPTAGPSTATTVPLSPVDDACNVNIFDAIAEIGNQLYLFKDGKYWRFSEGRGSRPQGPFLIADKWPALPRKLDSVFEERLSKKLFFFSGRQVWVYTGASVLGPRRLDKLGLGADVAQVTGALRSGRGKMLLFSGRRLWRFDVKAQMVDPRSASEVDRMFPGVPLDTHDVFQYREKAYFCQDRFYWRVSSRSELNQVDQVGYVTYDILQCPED

As to `O=C(/C=C/c1ccco1)N[C@H]1C[C@H](C(=O)NO)N(S(=O)(=O)c2ccc(Cl)c(Cl)c2)C1`, the IC50 in series [1] (read-out: IC50) worked out at 360 nM.

For `COc1ccc(C(=O)N[C@H]2C[C@H](C(=O)NO)N(S(=O)(=O)c3ccc(Cl)c(Cl)c3)C2)c(OC)c1`, the IC50 result in series [2] was “Not Active”; in [1] (read-out: IC50), 1710 nM.

In the case of `O=C(N[C@H]1C[C@H](C(=O)NO)N(S(=O)(=O)c2ccc(Cl)c(Cl)c2)C1)c1cccs1`, the IC50 entry in series [1] is listed as “Not Active”.

As to `COc1ccc(C(=O)N[C@@H]2C[C@H](C(=O)NO)N(S(=O)(=O)c3ccc(Cl)c(Cl)c3)C2)c(OC)c1`, the Activity entry in series [3] is given as “Non-toxic”; in series [4], “Toxic”; in [5] it was “Non-toxic”. For the same molecule, the outcome in the series with EPC, in the series filed under Mus musculus and with A375P was Active. The values for the IC50 in [2] (read-out: IC50) and in series [1] (read-out: IC50) were 450 nM and 560 nM, respectively. In addition, the inhibition result in series [6] was “Active”. Further, the inhibition entry in series [7] was “Dose-dependent effect”.

Consider `O=C(NO)[C@H]1C[C@@H](OCc2ccccc2)CN1S(=O)(=O)c1ccc(Cl)c(Cl)c1`, for which the IC50 entry in [2] is “Not Active”; in [1] (read-out: IC50), 900 nM.

With `O=C(NO)[C@H]1C[C@H](NS(=O)(=O)c2ccc(-c3ccccc3)cc2)CN1S(=O)(=O)c1ccc(Cl)c(Cl)c1`, the figures for the IC50 in series [2] (read-out: IC50) and in series [1] (read-out: IC50) were 360 nM and 60 nM, respectively.

On to `O=C(NO)[C@H]1C[C@H](n2cc(-c3ccccc3)nn2)CN1S(=O)(=O)c1ccc(Cl)c(Cl)c1`, for which, in series [1] (read-out: IC50), the IC50 is 1200 nM.

`O=C(NO)[C@H]1C[C@@H](NS(=O)(=O)c2ccc(-c3ccccc3)cc2)CN1S(=O)(=O)c1ccc(Cl)c(Cl)c1`: the IC50 entry is “Not Active” in series [2] and 590 nM in series [1] (read-out: IC50).

As for `O=C(N[C@@H]1C[C@H](C(=O)NO)N(S(=O)(=O)c2ccc(Cl)c(Cl)c2)C1)c1cccs1`, the IC50 in series [2] (read-out: IC50) worked out at 144 nM; in series [1] (read-out: IC50) it was 100 nM.
